Test results as given in patent US4183939A, “Glaucine analgesic method” (priority 1978, dated 1980).
Structures can show the parent of a compound that is named as a salt. Where two headings read alike, the source gives them in different places.

Legend:
mice [1] = conditions: cited from earlier work
[2] = in vivo; cited from earlier work
[3] = in vivo; cited from earlier work; remark: listed apart in the source
[4] = assay type: in vivo; conditions: intraperitoneal injection 45-60 minutes before testing
mice [5] = assay: phenyl-p-quinone mouse writhing test (oral analgesic activity); assay type: in vivo; conditions: orally 30 minutes prior to phenyl-p-quinone challenge; for ED50: Mus musculus, po, 0.5 h
Procedure: Test compounds were evaluated for oral analgesic activity in the phenyl-p-quinone mouse writhing test of Hendershot & Forsaith, J. Pharmacol. Exptl. Therap. 125(3), 237 (1959). Test compounds were administered orally 30 minutes prior to the phenyl-p-quinone challenge. […]

mice [6] = assay: animal or person; assay type: in vivo; conditions: Mus musculus, sc, 0.5 h; first evaluation; subcutaneous injection 30 minutes before testing; read-out: ED50 (hot plate)
Procedure: The test compounds were administered by subcutaneous injection 30 minutes before testing.

mice [7] = assay: protecting mice against writhing induced by intraperitoneal injection of aqueous 0.1 percent hydrochloric acid; assay type: in vivo; conditions: subcutaneous, 15 minutes before HCl; for ED50: Mus musculus, sc
Procedure: l-Glaucine hydrobromide and d-glaucine hydrobromide were evaluated for analgesic activity in protecting mice against characteristic writhing induced by intraperitoneal injection of aqueous 0.1 percent hydrochloric acid, injected 15 minutes after subcutaneous injection of a test compound.

[8] = plasma concentration levels of glaucine in guinea pigs; assay type: in vivo; conditions: for concentration at 0.25 h: 15 minutes after dosing, l-isomer orally 5 mg/kg, read-out: plasma glaucine level after 15 minutes
Procedure: Test compounds were administered to guinea pigs, and blood samples were collected at 15 minute intervals and analyzed to determine plasma concentration levels of glaucine.
Similar results were obtained with d- and l-glaucine phosphate, with l-glaucine phosphate producing from 3 to 6 or more times the levels obtained with the d-isomer throughout a 120 minute period.

mice [9] = assay type: in vivo; conditions: for stimulation and Straub tail: increasing doses on two consecutive days, d,l-glaucine phosphate highest dose 100 mg/kg; for jumping behavior after naloxone (in words): naloxone 100 mg/kg intraperitoneal
Procedure: Physical dependency liability was evaluated in mice by the procedure of Saelens, et al., Aoch. Int. Pharmacodynam, 190:213-218, 1971. In this procedure, mice are administered increasing doses of a test compound at intervals on two consectuive days. The last dosage on the second day is followed by intraperitoneal injection of the morphine antagonist, naloxone, at a dosage of 100 mg/kg, and the mice are observed for characteristic jumping behavior indicative of opiate withdrawals or morphine antaganism.

[10] = acute lethality (LD50) in mice; assay type: in vivo; conditions: mouse, in vivo, mortality within 72 hours
Procedure: (§1) In other operations, various dosages of d,l-glaucine phosphate were administered to groups of mice by the oral route or by intraperitoneal injection, and the dosage which is lethal to 50 percent of the mice (LD50) was calculated from the mortality observations within 72 hours after administration.

monkeys = assay: abuse potential: self-administration in codeine-habituated monkeys; assay type: in vivo; conditions: codeine 100 micrograms/kg per injection; d,l-glaucine phosphate substituted at 50, 100, 200 and 400 micrograms/kg per injection
Source text: The abuse potential of d,l-glaucine phosphate was studied in two monkeys in a procedure similar to that described by Deneau, et al., Psychopharmacologia 16(1):30-48, 1969.
In this procedure, the test monkeys are restrained and catheter inserted into the external jugular vein for injection of test substances in response to pressing a bar lever by the monkey. The test monkeys are first habituated to self-administer codeine at a rate of 100 micrograms/kilograms per injection. The self-administration rate of the two monkeys so trained and habituated was about 100 to 150 lever pushes per two hour session at the 100 microgram codeine level. […]

mice [11] = assay: acute lethality (LD50) in mice; assay type: in vivo; conditions: mortality within 72 hours
Procedure: as §1

[12] = in vivo; cited from earlier work; remark: listed apart in the source
[13] = naloxone 100 mg/kg intraperitoneal after last dose on second day

COc1cc2c(cc1OC)-c1c(OC)c(OC)cc3c1[C@H](C2)N(C)CC3 [d-glaucine]
hexenal and chloral hydrate sleep time (mice [1]): prolongs hexenal and chloral hydrate sleep time | doses with analgesic activity [2]: 50 to 100 mg/kg | adrenolytic activity [3]: adrenolytic activity

CCC(=O)O[C@](Cc1ccccc1)(c1ccccc1)[C@H](C)CN(C)C [d-Propoxyphene·HCl]
ED50 (tail pinch) [4]: 16.7 mg/kg

COc1cc2c(cc1OC)-c1c(OC)c(OC)cc3c1[C@@H](C2)N(C)CC3 [l-glaucine hydrobromide]
ED50 (mice [5]): 17 mg/kg | ED50 (mice [6]): 12.7 mg/kg | ED50 (mice [7]): 5.99 mg/kg | 95 percent confidence limits of ED50 (HCl writhing) (mice [7]): 2.43 to 14.8 mg/kg | concentration at 0.25 h ([8]; guinea pig, plasma, po): ~40 ng/mL | concentration at 1.5 h ([8]; guinea pig, plasma, po, orally 5 mg/kg, end of 90 minutes test period, read-out: plasma glaucine level at end of test period): ~200 ng/mL | Cmax ([8]; guinea pig, plasma, po, orally 5 mg/kg, one hour after administration, read-out: peak plasma glaucine level): > 350 ng/mL | time of peak plasma level ([8]; orally 5 mg/kg): one | analgesic activity (tail pinch) [4]: No analgesic activity was observed

COc1cc2c(cc1OC)-c1c(OC)c(OC)cc3c1C(C2)N(C)CC3 (racemic) [d,l-glaucine phosphate]
stimulation and Straub tail (mice [9]): no Straub tail at the highest dose | jumping behavior after naloxone (in words) (mice [9]; listed as d,l-Glaucine phosphate 1:11/2 salt): no jumping behavior in any of the eight mice tested | LD50 at 72 h ([10]; ip, intraperitoneal, read-out: LD50, intraperitoneal): 178 mg/kg | LD50 at 72 h ([10]; po, read-out: LD50, oral): ≥ 681 mg/kg | self-administration response rate (monkeys): 10-20 responses/two hour session | ED50 (mice [5]): 23 mg/kg

COc1cc2c(cc1OC)-c1c(OC)c(OC)cc3c1C(C2)N(C)CC3 (racemic) [d,l-glaucine lactate]
jumping behavior after naloxone (in words) (mice [9]): no jumping in any of the ten mice tested | LD50, intraperitoneal (mice [11]; intraperitoneal): 178 mg/kg | LD50, oral (mice [11]; oral, 4320 min): 383 mg/kg | oral ED50 (phenyl-p-quinone writhing) (mice [5]; 30 min): 25.5 mg/kg

COc1ccc2c3c1O[C@H]1[C@@H](O)C=C[C@H]4[C@@H](C2)N(C)CC[C@@]341 [codeine phosphate]
stimulation and Straub tail (mice [9]): produced Straub tail and stimulation | mice jumping after naloxone (mice [9]; [13]): 2 of 6 | total jumps after naloxone (mice [9]; [13]): 23 jumps total | ED50 (mice [5]): 21.1 mg/kg | ED50 (tail pinch) [4]: 6.8 mg/kg

COc1ccc2c3c1O[C@H]1[C@@H](O)C=C[C@H]4[C@@H](C2)N(C)CC[C@@]341 [codeine]
self-administration response rate (monkeys): 100-150 responses/two hour session

COc1cc2c(cc1OC)-c1c(OC)c(OC)cc3c1[C@H](C2)N(C)CC3 [d-glaucine hydrobromide]
ED50 (mice [5]): 34 mg/kg | ED50 (mice [6]): 23.8 mg/kg | ED50 (mice [7]): 12.9 mg/kg | 95 percent confidence limits of ED50 (HCl writhing) (mice [7]): 5.24 to 31.8 mg/kg | plasma level after initial peak, throughout the 90 minute period ([8]; after initial peak at 15 minutes, to 90 minutes): 20-40 nanograms/ml | concentration at 0.25 h ([8]; guinea pig, plasma, po): ~50 ng/mL | Tmax ([8]; guinea pig, plasma, read-out: time of initial peak plasma level (converted)): 15 min | antitussive activity [12]: antitussive activity | analgesic activity (tail pinch) [4]: No analgesic activity was observed
